Test results from ChEMBL document CHEMBL1133185, “Inhibition of clinically relevant mutant variants of HIV-1 by quinazolinone non-nucleoside reverse transcriptase inhibitors” (J Med Chem, 2000).

Key:
[1] = tested on: Human immunodeficiency virus 1; assay: Plasma Potency against Mutant HIV-1 K103N; format: functional; details: Human immunodeficiency virus 1, Plasma
[2] = tested on: Human immunodeficiency virus 1; assay: Potency against Mutant HIV-1 K103N; format: functional
[3] = tested on: Human immunodeficiency virus 1; assay: Calculated Potency against Mutant HIV-1 K103N; format: functional
[4] = tested on: Human immunodeficiency virus 1; assay: Calculated Potency against Mutant HIV-1 sL100I; format: functional
[5] = tested on: Human immunodeficiency virus 1; assay: Plasma Potency against Mutant HIV-1 sL100I; format: functional; details: Human immunodeficiency virus 1, Plasma
[6] = tested on: Human immunodeficiency virus 1; assay: Potency against Mutant HIV-1 sL100I; format: functional
MT2 [7] = assay: Antiviral activity against E, Zidovudine resistant clinical strain of HIV in MT-2 cells by yield assay; format: functional; details: Homo sapiens
MT2 [8] = assay: Antiviral activity against HIV-2 in MT-2 cells by yield assay; format: functional; details: Homo sapiens
MT2 [9] = assay: Antiviral activity against RF strain of HIV in MT-2 cells by RNA assay; format: functional; details: Homo sapiens
MT2 [10] = assay: Antiviral activity against RF strain of HIV in MT-2 cells by yield assay; format: functional; details: Homo sapiens
MT2 [11] = assay: Protein Binding was evaluated by PB shift in MT-2 by RNA assay; format: functional; details: Homo sapiens
[12] = tested on: Human immunodeficiency virus 1; assay: Calculated Potency against Mutant HIV-1 sV179D/L100I/Y181C; format: functional
[13] = tested on: Human immunodeficiency virus 1; assay: Plasma Potency against Mutant HIV-1 sV179D/L100I/Y181C; format: functional
[14] = tested on: Human immunodeficiency virus 1; assay: Potency against Mutant HIV-1 sV179D/L100I/Y181C; format: functional
[15] = tested on: Human immunodeficiency virus 1; assay: Antiviral activity against Thai 9466, a wild-type clinical strain of HIV in PBMC by P24 assay; format: functional
[16] = tested on: Human immunodeficiency virus 1; assay: Plasma antiviral activity was evaluated for RF strain of HIV-1; format: functional
Homo sapiens [17] = organism: Homo sapiens; assay: (§1) percentage of the free compound in human serum; format: functional
Homo sapiens [18] = organism: Homo sapiens; assay: (§2) percentage of the free compound in tissue culture medium; format: functional
[19] = tested on: Human immunodeficiency virus 1; assay: Compound was evaluated for antiviral activity against L100I mutant virus; format: functional
[20] = tested on: Human immunodeficiency virus 1; assay: Antiviral activity toward K103N mutant HIV-1 virus as protein binding adjusted (PB adj).; format: functional
[21] = tested on: Human immunodeficiency virus 1; assay: Antiviral activity against HIV-1 K103N mutant virus.; format: functional
[22] = molecular target: Human immunodeficiency virus type 1 reverse transcriptase (Human immunodeficiency virus 1, UniProt Q72547); assay: Inhibition of HIV-1 reverse transcriptase.
[23] = tested on: Human immunodeficiency virus 1; assay: Antiviral activity was evaluated for the inhibition of wild-type RF strain of HIV-1 in an in vitro enzyme assay.; format: functional
[24] = tested on: Human immunodeficiency virus 1; assay: Compound was evaluated for the inhibition of human plasma protein binding adjusted (PB Adj) wild-type RF strain of HIV-1; format: functional; details: Human immunodeficiency virus 1, Plasma
[25] = tested on: Human immunodeficiency virus 1; assay: The compound was evaluated for the effect of human plasma protein binding on antiviral efficacy; format: functional; details: Human immunodeficiency virus 1, Plasma
[26] = tested on: Human immunodeficiency virus 1; assay: Antiviral activity against A018C, Zidovudine resistant clinical strain of HIV in PBMC by P24 assay; format: functional
[27] = tested on: Human immunodeficiency virus 1; assay: Compound was evaluated for the inhibition of wide-type RF strain of HIV-1; format: functional
Homo sapiens [28] = organism: Homo sapiens; assay: as §1; format: cell-free
Homo sapiens [29] = organism: Homo sapiens; assay: as §2
[30] = tested on: Human immunodeficiency virus 1; assay: Potency of second-generation NNRTIs against Mutant HIV-1 K103N free drug; format: functional
[31] = tested on: Human immunodeficiency virus 1; assay: Potency of second-generation NNRTIs against Mutant HIV-1 K103N plasma; Vlaue ranges from 3400-8100; format: functional
[32] = tested on: Human immunodeficiency virus 1; assay: In vitro antiviral activity against HIV-1 (L100I).; format: functional
[33] = tested on: Human immunodeficiency virus 1; assay: Potency of second-generation NNRTIs against Mutant HIV-1 sL100I; format: functional
[34] = tested on: Human immunodeficiency virus 1; assay: Potency of second-generation NNRTIs against Mutant HIV-1 sL100I plasma; Value ranges from 6600-15700; format: functional
MT2 [35] = assay: Antiviral activity of Protein Binding of compound was evaluated for HIV-2 virus expressed MT-2 by yield; format: functional, Human immunodeficiency virus 2; details: Homo sapiens
MT2 [36] = assay: Antiviral activity of Protein Binding of compound was evaluated for E virus expressed MT-2 by yield; format: functional, Human immunodeficiency virus 1; details: Homo sapiens
MT2 [37] = assay: Antiviral activity of Protein Binding of compound was evaluated for PB shift virus expressed MT-2 by RNA; format: functional, Human immunodeficiency virus 1; details: Homo sapiens
MT2 [38] = assay: Antiviral activity of Protein Binding of compound was evaluated for RF virus expressed MT-2 by RNA; format: functional, Human immunodeficiency virus 1; details: Homo sapiens
MT2 [39] = assay: Antiviral activity of Protein Binding of compound was evaluated for RF virus expressed MT-2 by yield; format: functional, Human immunodeficiency virus 1; details: Homo sapiens
[40] = tested on: Human immunodeficiency virus 1; assay: Potency of second-generation NNRTIs against Mutant HIV-1 sV179D/L100I/Y181C; format: functional
[41] = tested on: Human immunodeficiency virus 1; assay: Potency of second-generation NNRTIs against Mutant HIV-1 sV179D/L100I/Y181C free drug; format: functional
[42] = tested on: Human immunodeficiency virus 1; assay: Potency of second-generation NNRTIs against Mutant HIV-1 sV179D/L100I/Y181C plasma; value ranges from 130000-309500; format: functional
[43] = tested on: Human immunodeficiency virus 1; assay: Antiviral activity of Protein Binding of compound was evaluated for A 018C virus expressed PBMC by P24; format: functional
[44] = tested on: Human immunodeficiency virus 1; assay: Antiviral activity of Protein Binding of compound was evaluated for Thai 9466 virus expressed PBMC by P24; format: functional
[45] = percentage in tissue culture medium
[46] = tested on: Human immunodeficiency virus 1; assay: Compound was evaluated for the inhibition of wilde-type RF strain of HIV-1; format: functional
Homo sapiens [47] = organism: Homo sapiens; assay: percentage in human serum; value ranges from -0.2-0.5; format: functional
[48] = tested on: Human immunodeficiency virus 1; assay: Potency of second-generation NNRTIs against Mutant HIV-1 sL100I free drug; format: functional
[49] = tested on: Human immunodeficiency virus 1; assay: Potency of second-generation NNRTIs against Mutant HIV-1 K103N; format: functional

Row | Compound | IC90 [1] [µM] | IC90 [2] [µM] | IC90 [3] [µM] | IC90 [4] [µM] | IC90 [5] [µM] | IC90 [6] [µM] | IC90 (MT2 [7]) [µM] | IC90 (MT2 [8]) [µM] | IC90 (MT2 [9]) [µM] | IC90 (MT2 [10]) [µM] | IC90 (MT2 [11]) [µM] | IC90 [12] [µM] | IC90 [13] [µM] | IC90 [14] [µM] | IC90 [15] [µM] | IC90 [16] [µM] | IC90 [20] [µM] | IC90 ([21]; Human immunodeficiency virus 1) [µM] | also measured
1 | O=C1Nc2ccc(Cl)cc2[C@@](/C=C/C2CC2)(C(F)(F)F)N1 | 0.55 | 0.027 | 0.011 | 0.0043 | 0.22 | 0.011 | 0.0013 | > 2.8 | 0.0021 | 0.0019 | 0.0037 | 0.12 | 6 | 0.32 | 0.0009 | 0.04 | – | – | Free (Homo sapiens [17]): 2%; Free (Homo sapiens [18]): 39%
2 | O=C1Nc2ccc(F)c(Cl)c2[C@@](C#Cc2ccccn2)(C(F)(F)F)N1 | – | – | – | – | – | – | – | – | – | – | – | – | – | – | – | – | 1.31 | 0.073 | IC90 [19]: 0.044 µM; IC50 [22]: 0.08 µM; IC90 [23]: 0.0023 µM; IC90 [24]: 0.041 µM
3 | CCC#C[C@]1(C(F)(F)F)NC(=O)Nc2ccc(F)c(F)c21 | – | – | – | – | – | – | – | – | – | – | – | – | – | – | – | – | 0.093 | 0.014 | IC90 [19]: 0.018 µM; IC50 [22]: 0.074 µM; IC90 [25]: 0.01 µM; IC90 [23]: 0.0015 µM
4 | O=C1Nc2ccc(F)c(F)c2[C@@](C#CC2CC2)(C(F)(F)F)N1 (stereo in doubt) | 0.14 | 0.011 | 0.004 | 0.003 | 0.11 | 0.008 | 0.0017 | > 0.95 | 0.0013 | 0.0023 | 0.0069 | 0.041 | 1.46 | 0.11 | 0.0019 | 0.018 | – | – | IC90 [21]: 0.011 µM; IC90 [26]: 0.0016 µM; IC90 [27]: 0.0013 µM
5 | O=C1Nc2ccc(F)c(F)c2[C@@](/C=C/C2CC2)(C(F)(F)F)N1 | 0.37 | 0.021 | 0.011 | 0.0031 | 0.1 | 0.0059 | 0.0029 | > 2.8 | 0.002 | 0.0027 | 0.0035 | 0.13 | 4.3 | 0.25 | – | 0.033 | – | – | Free (Homo sapiens [28]): 3%; Free (Homo sapiens [29]): 53%
6 | O=C1Nc2ccc(Cl)cc2[C@@](C#CC2CC2)(C(F)(F)F)N1 (stereo in doubt) | 0.21 | 0.01 | 0.0031 | 0.004 | 0.27 | 0.013 | – | > 2.8 | 0.002 | 0.0027 | 0.017 | 0.059 | 3.9 | 0.19 | 0.005 | 0.04 | – | – | IC90 [21]: 0.01 µM; IC90 [26]: 0.0025 µM; IC90 [27]: 0.002 µM; Free (Homo sapiens [17]): 1.5%; Free (Homo sapiens [18]): 31%
7 | O=C1Nc2ccc(Cl)cc2[C@@](C#CC2CC2)(C(F)(F)F)O1 [EFAVIRENZ] | – | – | – | – | – | – | – | – | – | – | – | – | – | – | – | – | 1.06 | 0.064 | IC90 [30]: 0.017 µM; IC90 [31]: 8.1 µM; IC90 [32]: 0.077 µM; IC90 [33]: 0.12 µM; IC90 [34]: 15.7 µM; IC90 (MT2 [35]): > 3 µM; IC90 (MT2 [36]): 0.0028 µM; IC90 (MT2 [37]): 0.017 µM; IC90 (MT2 [38]): 0.0017 µM; IC90 (MT2 [39]): 0.0024 µM; IC90 [40]: 2.4 µM; IC90 [41]: 0.65 µM; IC90 [42]: 310 µM; IC90 [43]: 0.0028 µM; IC90 [44]: 0.0085 µM; Free [45]: 27%; IC90 [46]: 0.0017 µM; Free (Homo sapiens [47]): 0.5%; IC90 [48]: 0.033 µM; IC90 [49]: 0.064 µM
